Results from paper PMC5635026, “Homo-PROTACs: bivalent small-molecule dimerizers of the VHL E3 ubiquitin ligase to induce self-degradation” (Nature Communications, 2017).
Read-outs that look alike come from different tables or passages of the source.

How the values were obtained:
pVHL19 [1] = molecular target: T1, pVHL19 (Homo sapiens, UniProt P40337); assay: Immunoblot of pVHL19 protein level in HeLa cells after compound treatment; type: cell-based; design: endogenous in cells; host or cells: HeLa; conditions: 10 h, read-out: pVHL19 band quantification normalized to 0.1% DMSO
Protocol: (§1) Cell culture. Human cell lines HeLa, U2OS and HEK 293, purchased from ATCC, were propagated in DMEM supplemented with 10% fetal bovine serum (FBS), L- glutamine, 100 μg ml^−1 of penicillin/streptomycin at 37 °C and 5% CO2. Cells were maintained for no more than 30 passages. All cell lines were routinely tested for mycoplasma contamination using MycoAlert kit from Lonza. For compound treatment experiments, cells were transferred in six-well plates with either 3 × 10^5 or 5 × 10^5 cells per well in 2 ml of media. At 80% confluence, cells were treated with compounds at the desired concentration, reaching final DMSO concentration of 0.1% v/v. Cells were incubated at 37 °C and 5% CO2 for the desired time before harvesting.
(§2) Immunoblotting. Cells were lysed in lysis buffer (20 mM Tris pH 8, 150 mM NaCl, 1% Triton × 100) and a protease inhibitor cocktail (Roche) per 10 ml buffer. For protein extracts, the dishes were placed on ice. The media was aspirated and the tissue layer washed twice with ice-cold phosphate buffer saline (PBS). Lysis buffer (120 μl) was added and the cells detached from the surface with a cell scraper. After removal of the insoluble fraction by centrifugation, the protein concentration of the supernatant was determined by Pierce™ Coomassie (Bradford) Protein Assay Kit. Protein extracts were fractionated by SDS-PAGE on 4–12% Tris-Acetate NuPage® Novex® (Life Technologies) polyacrylamide gels and transferred to a nitrocellulose membrane using wet transfer. The membrane was then blocked with 5 % w/v Bovine serum albumin (BSA) in Tris-buffered saline (TBS) with 0.1% w/v Tween-20. For detecting proteins the following primary antibodies in the given concentrations were used: anti-β-Actin (Cell Signaling Technology, 4970S, 13E5) 1:2000, anti-VHL (Cell Signaling Technology, #68547) 1:1000, anti-Hif-1α (BD Biosciences, 610959, clone 54) 1:1,000, anti-hydroxy-HIF-1α (Hyp564) (Cell Signaling Techonology; #3434) 1:1,000, anti-PHD2 (Bethyl Laboratories; A300-322A) 1:1,000, anti-PHD3 (Bethyl Laboratories; A300-327A) 1:1000, anti-CRBN (Proteintech; 11435-1-AP) 1:1,000. Following incubation with a horseradish peroxidase-conjugated secondary antibody (Cell Signaling Technology), the signal was developed using enhanced chemiluminescence (ECL) Western Blotting Detection Kit (Amersham) on Amersham Hyperfilm ECL film (Amersham). Band quantification was performed using ImageJ software and reported as relative amount as ratio of the each protein band relative to the lane’s loading control. The values obtained were then normalized to 0.1% DMSO vehicle control. See Supplementary Fig. 12 for full-scanned images of western-blots shown in the main text figures.
Target sequence in this assay (P40337 54-213): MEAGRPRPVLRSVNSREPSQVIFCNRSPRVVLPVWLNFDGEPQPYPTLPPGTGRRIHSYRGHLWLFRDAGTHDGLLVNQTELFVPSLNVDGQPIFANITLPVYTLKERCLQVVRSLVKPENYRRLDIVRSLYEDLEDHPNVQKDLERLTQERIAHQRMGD
Target sequence in this assay (Q15369 whole entry partner): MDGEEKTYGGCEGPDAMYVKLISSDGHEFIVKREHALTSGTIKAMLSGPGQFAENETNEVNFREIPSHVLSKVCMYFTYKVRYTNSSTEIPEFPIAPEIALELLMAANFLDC
Target sequence in this assay (Q15370 whole entry partner): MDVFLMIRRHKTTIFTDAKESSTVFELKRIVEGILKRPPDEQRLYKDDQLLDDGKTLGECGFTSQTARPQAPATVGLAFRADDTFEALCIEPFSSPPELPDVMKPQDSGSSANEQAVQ

pVHL30 [2] = molecular target: T2, pVHL30 (Homo sapiens, UniProt P40337); assay: Immunoblot of pVHL30 protein level in HeLa cells after compound treatment; type: cell-based; design: endogenous in cells; host or cells: HeLa; conditions: 10 h; for depletion of target protein (pVHL30 / VHL) / remaining activity at 1 µM: 1 µM; for remaining activity at 1 µM: DMSO = 100, Fig. 4a; for remaining activity at 1 µM / remaining pVHL30 protein level at 1 µM: read-out: pVHL30 band quantification normalized to 0.1% DMSO
Protocol: as §1, §2
Target sequence in this assay (P40337 whole entry): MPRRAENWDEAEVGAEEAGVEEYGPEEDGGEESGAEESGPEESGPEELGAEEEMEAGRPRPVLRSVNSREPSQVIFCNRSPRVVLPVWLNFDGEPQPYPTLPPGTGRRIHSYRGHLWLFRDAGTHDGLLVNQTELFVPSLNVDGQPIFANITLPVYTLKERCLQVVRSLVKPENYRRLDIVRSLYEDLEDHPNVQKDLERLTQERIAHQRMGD

pVHL19 [3] = molecular target: T1, pVHL19; assay: Isothermal titration calorimetry (ITC) against VCB complex with short VHL isoform (V19CB); type: binding; design: made in house; conditions: ITC
Protocol: (§3) Protein expression and purification. Human proteins VHL (UniProt accession number: P40337), ElonginC (Q15369), and ElonginB (Q15370) were used for all protein expression. The short-isoform-containing VCB complex (V19CB) was expressed, purified and stored as described previously. For expression of the long-isoform-containing VCB complex (V30CB), N-terminally His6-tagged VHL (1–213), ElonginC (17–112) and ElonginB (1–104) were co-expressed in Escherichia coli BL21(DE3) at 20 °C for 18 h using 0.5 mM isopropyl β-D-1-thiogalactopyranoside (IPTG). E. coli cells were resuspended in binding buffer (50 mM HEPES, pH 8.0, 500 mM NaCl, 10 mM imidazole and 5 mM β-mercaptoethanol), lysed using a pressure cell homogenizer (Stansted Fluid Power), and lysate clarified by centrifugation. The supernatant was loaded onto a HisTrap FF affinity column (GE Healthcare) equilibrated with binding buffer, and bound protein was eluted using an imidazole gradient. The His6 tag was removed using thrombin protease (Sigma), and the untagged complex was dialyzed into binding buffer. V30CB was then loaded onto the HisTrap FF column a second time, allowing impurities to bind as the complex eluted without binding. The flow-through was dialyzed using a low-salt buffer (20 mM HEPES, pH 8.0, 25 mM NaCl and 1 mM DTT) and then loaded onto a Resource Q anion exchange column (GE Healthcare); bound protein was eluted across a linear NaCl gradient. V30CB was then additionally purified by size-exclusion chromatography using a Superdex-75 16/600 column (GE Healthcare) equilibrated with 20 mM HEPES, pH 7.5, 100 mM sodium chloride and 1 mM TCEP. All chromatography purification steps were performed using Äkta FPLC purification systems (GE Healthcare).
(§4) Isothermal titration calorimetry (ITC). Titrations were performed on an ITC200 micro-calorimeter (GE Healthcare). […] The final DMSO concentration was 0.15% v/v. VCB protein experiments were carried out in a buffer containing 20 mM Bis-tris propane, 150 mM NaCl, 1 mM TCEP, 0.15% v/v DMSO, pH 7.4. The titrations consisted of 19 injections of 2 µL compounds solution (150 µM, in the syringe) at a rate of 0.5 µl s^−1 at 120 s time intervals into the VCB protein solution (20 µM, in the cell). An initial injection of compound solution (0.4 µL) was made and discarded during data analysis. All experiments were performed at 25 °C, whilst stirring the syringe at 600 rpm. The data were fitted to a single binding site model to obtain the stoichiometry n, the dissociation constant K d and the enthalpy of binding ΔH using the Microcal LLC ITC200 Origin software provided by the manufacturer.
Target sequence in this assay (P40337 54-213): as the sequence (P40337 54-213) above
Target sequence in this assay (Q15369 17-112 partner limits assumed): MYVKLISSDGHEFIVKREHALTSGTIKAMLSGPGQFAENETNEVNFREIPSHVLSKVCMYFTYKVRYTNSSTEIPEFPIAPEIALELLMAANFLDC
Target sequence in this assay (Q15370 1-104 partner limits assumed): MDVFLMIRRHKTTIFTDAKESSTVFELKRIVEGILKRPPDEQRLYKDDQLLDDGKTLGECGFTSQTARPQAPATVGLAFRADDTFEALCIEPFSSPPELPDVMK

V19CB = molecular target: T3, V19CB (Homo sapiens, UniProt P40337); assay: Size-exclusion chromatography (SEC) of complex formation with V19CB; type: binding; conditions: VCB 50 µM, compound 30 µM
T3 construct: made in house
Protocol: as §3
Size-exclusion chromatography (SEC). SEC experiments were carried out in a ÄKTA pure system (GE Healthcare) at room temperature. The oligomeric state of the VCB complex in solution was analyzed by gel filtration in a buffer containing 20 mM Bis-Tris (pH 7), 150 mM NaCl and 1 mM 1,4-dithiothreitol (DTT) using a Superdex 200 Increase 10/300 GL column (GE Healthcare) calibrated with globular proteins of known molecular weight (GE Healthcare, 28-4038-41/42). […] Sample volume for each injection was 200 µl, and the flow rate was 0.5 ml min^−1. Peak elution was monitored using ultraviolet absorbance at 280 nm.

pVHL30 [4] = molecular target: T2, pVHL30; assay: Isothermal titration calorimetry (ITC) against VCB complex with long VHL isoform (V30CB); type: binding; design: N-terminally His6-tagged VHL (1–213), ElonginC (17–112) and ElonginB (1–104) were co-expressed; His6 (N, cleaved yes); made in house; host or cells: Escherichia coli BL21(DE3); conditions: 25 °C
Protocol: as §3, §4
Target sequence in this assay (P40337 whole entry): as the sequence (P40337 whole entry) above
Target sequence in this assay (Q15369 17-112 partner limits assumed): as the sequence (Q15369 17-112 partner limits assumed) above
Target sequence in this assay (Q15370 1-104 partner limits assumed): as the sequence (Q15370 1-104 partner limits assumed) above

T3 sequence (P40337 54-213): as the sequence (P40337 54-213) above
T3 sequence (Q15369 17-112 partner limits assumed): as the sequence (Q15369 17-112 partner limits assumed) above
T3 sequence (Q15370 1-104 partner limits assumed): as the sequence (Q15370 1-104 partner limits assumed) above

Row | Structure (SMILES) | remaining activity at 1 µM (pVHL19 [1]; 1 µM, DMSO = 100, Fig. 4a) [%] | depletion of target protein (pVHL30 / VHL) (pVHL30 [2]) | remaining activity at 1 µM (pVHL30 [2]) [%] | shift of VCB peak / ternary complex formation in SEC (V19CB) | remaining activity at 1 µM (pVHL19 [1]) [%] | remaining pVHL30 protein level at 1 µM (pVHL30 [2]) [%] | further results
1 | Cc1ncsc1-c1ccc(CNC(=O)[C@@H]2C[C@H](O)CN2C(=O)[C@@H](NC(=O)COCCOCCOCCOCCOCCOCC(=O)N[C@H](C(=O)N2C[C@@H](O)C[C@H]2C(=O)NCc2ccc(-c3scnc3C)cc2)C(C)(C)C)C(C)(C)C)cc1 [CMP98, N ^1 ,N ^20-bis((S)-1-((2S,4S)-4-hydroxy-2-((4-(4-methylthiazol-5-yl)benzyl)carbamoyl)pyrrolidin-1-yl)-3,3-dimethyl-1-oxobutan-2-yl)-3,6,9,12,15,18-hexaoxaicosanediamide] | 104 | unable to induce degradation of VHL | 108 | No shift | – | – | binding to VCB by ITC (pVHL19 [3]; qualitative): binding was not detected
2 | Cc1ncsc1-c1ccc(CNC(=O)[C@H]2C[C@@H](O)CN2C(=O)[C@H](NC(=O)COCCOCCOCCOCCOCC(=O)N[C@H](C(=O)N2C[C@H](O)C[C@H]2C(=O)NCc2ccc(-c3scnc3C)cc2)C(C)(C)C)C(C)(C)C)cc1 [CMP99, N ^1-((R)-1-((2R,4R)-4-hydroxy-2-((4-(4-methylthiazol-5-yl)benzyl)carbamoyl)pyrrolidin-1-yl)-3,3-dimethyl-1-oxobutan-2-yl)-N ^17-((S)-1-((2S,4R)-4-hydroxy-2-((4-(4-methylthiazol-5-yl)benzyl)carbamoyl)pyrrolidin-1-yl)-3,3-dimethyl-1-oxobutan-2-yl)-3,6,9,12,15-pentaoxaheptadecanediamide] | 104 | unable to induce degradation of VHL | 62 | No shift | – | – | ΔG (pVHL30 [4]; pVHL30): –9.51 ± 0.05 kcal mol^−1; ΔH (pVHL30 [4]; pVHL30): –5.19 ± 0.03 kcal mol^−1; −TΔS (pVHL30 [4]; pVHL30): –4.3 ± 0.1 kcal mol^−1; Kd (pVHL30 [4]; pVHL30 (V30CB)): 0.106 ± 0.01 µM; n (pVHL30 [4]; stoichiometry of binding, pVHL30 (V30CB)): 1.050 ± 0.004; ΔG (pVHL19 [3]; 25 °C, pVHL19): –9.33 ± 0.06 kcal mol^−1; ΔH (pVHL19 [3]; 25 °C, pVHL19): –6.23 ± 0.05 kcal mol^−1; −TΔS (pVHL19 [3]; 25 °C, pVHL19): –3.1 ± 0.7 kcal mol^−1; Kd (pVHL19 [3]; 25 °C, pVHL19 (V19CB)): 0.146 ± 0.002 µM; n (pVHL19 [3]; 25 °C, stoichiometry of binding, pVHL19 (V19CB)): 0.964 ± 0.005; elution volume of small peak in SEC (V19CB): 13.5 mL
3 | CC(=O)N[C@H](C(=O)N1C[C@H](O)C[C@H]1C(=O)NCc1ccc(-c2scnc2C)cc1OCCOCCOCCOCCOCCOc1cc(-c2scnc2C)ccc1CNC(=O)[C@@H]1C[C@@H](O)CN1C(=O)[C@@H](NC(C)=O)C(C)(C)C)C(C)(C)C [CMP106] | – | – | – | – | 93 | 114 | –
4 | Cc1ncsc1-c1ccc(CNC(=O)[C@@H]2C[C@@H](O)CN2C(=O)[C@@H](NC(=O)C2(C#N)CC2)C(C)(C)C)c(OCCOCCOCCOCCOCCOc2cc(-c3scnc3C)ccc2CNC(=O)[C@@H]2C[C@@H](O)CN2C(=O)[C@@H](NC(=O)C2(C#N)CC2)C(C)(C)C)c1 [CMP108] | 97 | – | 126 | – | – | – | –
5 | CC(=O)N[C@H](C(=O)N1C[C@H](O)C[C@H]1C(=O)NCc1ccc(-c2scnc2C)cc1OCCOCCOCCOCCOCCOCC(=O)N[C@H](C(=O)N1C[C@H](O)C[C@H]1C(=O)NCc1ccc(-c2scnc2C)cc1)C(C)(C)C)C(C)(C)C [CMP112] | 89 | – | 110 | – | – | – | –
6 | Cc1ncsc1-c1ccc(CNC(=O)[C@@H]2C[C@@H](O)CN2C(=O)[C@@H](NC(=O)COCCOCCOCCOCCOCCOc2cc(-c3scnc3C)ccc2CNC(=O)[C@@H]2C[C@@H](O)CN2C(=O)[C@@H](NC(=O)C2(C#N)CC2)C(C)(C)C)C(C)(C)C)cc1 [CMP113] | – | – | – | – | 111 | 121 | –
